# In patent publication US8242086B2, “Methods and compositions for treating disorders caused by a deficiency in a gene product of a CLN gene” (Duke University, priority 2008, dated 2012):
# “Also recorded” adds a separate entry of the source.
# Key:
# [1] = system: CLN3 knockdown NT2 cells; assay: Cell apoptosis rate in CLN3 knockdown NT2 cells, propidium iodide; format: cell-based, human; conditions: GalCer 50 ng/ml, 3 days after transfection
# Experimental: (§1) Cell Culture and Cell Treatment. NT2 neuronal precursor cells (ATCC cat no. CRL 1973) were grown in DMEM supplemented with 1% sodium pyruvate, L-glutamine and antibiotics and incubated in 37 C and 5% CO2 for 3 days.
# (§2) siRNA knockdown of CLN3 in NT2 cells. HS1 siRNA ([…]) for CLN3 knockdown was designed using BLOCK-iT RNA™ Designer (Invitrogen). […] siRNA and scrambled universal negative control siRNA oligonucleotides were transfected into wild type NT2 cells using Lipofectamine RNAiMax™ according to manufacturer's protocol. In brief, […] HS1 RNAi duplex or scrambled siRNA universal negative control were diluted in 50 μl DMEM medium without serum. Lipofectamine™ RNAiMAX was mixed gently before use, then 1 μl was diluted in 50 μl DMEM medium. The diluted RNAi duplexes were combined with the diluted Lipofectamine RNAiMAX and incubated for 10 minutes at room temperature. […]
# Determination of cell apoptosis rate in CLN3 knockdown NT2 cells. 10^6 cells transfected with CLN3 siRNA or scrambled siRNA, either treated with 50 ng/ml of GalCer (Avanti Polar Lipids, inc.) or solvent, are suspended in 100 μl PBS, incubated with 100 μl/0.5 mg/ml PI, washed, placed on slides and viewed using a fluorescence microscope. […] Cells in three fields of vision were counted. Percentage of red staining-apoptotic cells/total cells was determined.
# [2] = Intraperitoneal GalCer injection of normal mice, GalCer mass in kidney subcellular fractions (TLC); format: in vivo, mouse; conditions: intraperitoneal injection (α-GalCer), two days prior to sacrifice
# Source text: Mouse experiments. Six homozygous Cln3^Δex7/8 adult 60 day old mice and six age and sex-matched control mice were deeply anesthetized by xylazine/ketamine and sacrificed by cardiac perfusion of ice-cold phosphate-buffered saline (PBS, pH 7.4), followed by periodate-lysine-phosphate (PLP) fixative (2% paraformaldehyde, 0.01M sodium periodate and 0.1M lysine phosphate buffer, pH 7.4). Mouse brains were snap-frozen in liquid nitrogen. Three of the frozen brains from each group were used for subcellular fractionation and thin layer chromatography, and frozen sections were obtained for fluorescence immunocytochemistry from the rest. At the age of 60 days and two days prior to sacrifice, three of six control mice were injected with α-GalCer at a dose of […] or vehicle intraperitoneally. They were deeply anesthetized by xylazine/ketamine and sacrificed by cardiac perfusion of ice-cold phosphate-buffered saline (PBS, pH 7.4), followed by periodate-lysine-phosphate (PLP) fixative (2% paraformaldehyde, 0.01M sodium periodate and 0.1M lysine phosphate buffer, pH 7.4). […]
# Thin Layer Chromatography for Quantification of Galactosylceramide. […] Lipid quantification was accomplished with ImageQuant™ program and normalized with respect to phosphate content.
# [3] = system: CLN3-deficient (JNCL) cells; assay: Growth of CLN3-deficient (JNCL) cells treated with GalCer, Trypan blue dye exclusion; format: cell-based, human
# Experimental: Cell Culture. Lymphoblasts are grown at 37° C. and in 5% CO2 in RPMI 1640 medium (Sigma-Aldrich, St Louis, Mo.)/10% fetal bovine serum and 1% antibiotic/antimycotic. Immortalized lymphoblast cell lines originally obtained from JNCL and other NCL patients and normal donors, were used for all experiments. Fibroblasts from normal and mnd (CLN8-deficient) mice were also used. All JNCL lymphoblasts used are homozygous for the 1.02 kb deletion in the genomic DNA.
# Treatment of CLN3-deficient (JNCL) cells with GalCer increases growth rates. 0.1 million CLN3−/− cells were plated per well in 6 well plates. harvested and counted at 24, 48, 72 and 96 hours. Numbers of viable cells were determined with Trypan blue dye exclusion.
# [4] = investigated as a cancer therapy; cited from earlier work
# [5] = system: CLN3 knockdown NT2 cells; assay: Cell proliferation rate in CLN3 knockdown NT2 cells, Trypan blue dye exclusion; format: cell-based, human; conditions: GalCer 50 ng/ml, 3 days post-transfection
# Experimental: as §1
# as §2, with “temperature. The RNAi duplex-Lipofectamine™ RNAiMAX complexes were added to cells for a final RNA concentration of 10 nM.” for “temperature.”
# Determination of cell proliferation rate in CLN3 knockdown NT2 cells. 4×10^5 cells transfected with CLN3 siRNA or scrambled siRNA, and treated or not treated with 50 ng/ml GalCer, were seeded and counted with Trypan blue dye exclusion. […]
# NT2 cell proliferation and apoptosis rates. An equal number of NT2 cells was initially seeded and cell number determined at different time points with Trypan blue dye exclusion. […]
substance,measurement,setting,value
galactosylceramide [GalCer],cell death (apoptosis) of CLN3-deficient NT2 cells,[1],significantly reduces cell death
same,kidney Golgi GalCer,[2],concomitant reduction in Golgi GalCer; also recorded: concomitant drop in Golgi GalCer
same,kidney lipid raft (plasma membrane) GalCer,[2],increase GalCer at the plasma membrane; also recorded: increases kidney lipid raft GalCer
same,growth of JNCL cells,"[3]; GalCer 50 ng/ml, counted at 24, 48, 72 and 96 hours",restored growth
same,growth of JNCL cells,[3]; GalCer 100 ng/ml (doubled concentration),no effect
same,safety in humans,[4],documented to be safe in humans
same,growth of CLN3-deficient NT2 cells,[5],normalized growth; also recorded: corrects growth
